Assays:
[1] = test system: ovalbumin-sensitized mice; experiment: Airway hyperresponsiveness (Penh) and BALF cell counts; type: in vivo, mouse; details: for methacholine-induced increase in Penh values: FIG. 21
Description: Using the method of Hamelmann et al, (2S,3R)—N-2-((3-pyridinyl)methyl)-1-azabicyclo[2.2.2]oct-3-yl)-3,5-difluorobenzamide was evaluated for possible inhibition of airway hyper-responsiveness in mice. Briefly, ovalbumin (OVA)-sensitized animals, 12 animals per group, were challenged by nasal inhalation with aerosolized 5% OVA for 25 min on days 21, 23, and 25. The mice were treated with vehicle or (2S,3R)—N-2-((3-pyridinyl)methyl)-1-azabicyclo[2.2.2]oct-3-yl)-3,5-difluorobenzamide subcutaneously (s.c.) twice daily from day 21 to day 26 or once daily intratracheally (i.t.), preceding ovalbumin aerosol challenge by 30 min on days 21, 23 and 25 as well as methacholine challenge or bronchoalveolar lavage fluids (BALF) harvest on day 26. Dexamethasone, the reference standard, was administered at 3 mg/kg orally (p.o.) once daily 60 min before OVA challenge on day 21, 23 and 25 and 60 min before methacholine provocation or BALF harvest on day 26. Noninvasive measurements of airway responsiveness were performed by using whole body plethysmography, in which increases in enhanced pause (Penh) serve as an index of airway obstruction. Responses to inhaled methacholine were measured and calculated as percentage of respective baseline values. Unpaired Students t-test was used for comparison between the vehicle control and the sham group; one-way ANOVA and Dunnett's post-hoc analyses were applied for comparison between the vehicle control and treated groups. Statistical significance is considered at P<0.05.

[2] = Aqueous solubility of salts (salt screen); type: physicochemical; details: free base form
[3] = test system: STZ rat model of diabetic neuropathy; experiment: Streptozotocin (STZ)-induced diabetic neuropathy, Von Frey allodynia; type: in vivo; details: for allodynia (Von Frey): 30 minutes after administration
Description: Peripheral neuropathy, a major complication of diabetes, often results in spontaneous pain or the perception of pain from contact with a normally non-noxious stimulus. Such neuropathic pain is experienced by 20-24% of diabetic patients, or approximately 30 million people worldwide (Schmader, 2002). The streptozotocin (STZ)-induced diabetes model in rats provides a means to evaluate the efficacy of test compounds that offer therapeutic potential for peripheral neuropathy and to understand their putative mechanism of action. In this model, a single injection of STZ, an antibiotic that mimics clinical diabetes by causing irreversible damage to the pancreatic β and α-cells leads to chronic hyperglycemia, nerve dysfunction and pain sensitivity. The current study utilizes the STZ rat model of diabetic neuropathy to investigate the effects of (2S,3R)—N-2-((3-pyridinyl)methyl)-1-azabicyclo[2.2.2]oct-3-yl)-3,5-difluorobenzamide on mechanical allodynia, an assessment of pain.
Diabetes was induced by a 0.5 ml injection of streptozotocin (60 mg/kg) dissolved in citrate buffer (pH) into the tail vein of each rat The development of diabetes was confirmed by measuring the blood glucose levels (BGL) of all animals on study day 3 (BGL>300 mg/dL). […] These animals were tested again for their BGL at study day 23.
(2S,3R)—N-2-((3-pyridinyl)methyl)-1-azabicyclo[2.2.2]oct-3-yl)-3,5-difluorobenzamide (0.1, 1 or 10 mg/kg p.o.) was administered as a solution of the hydrochloride salt in water once daily starting on study day 14 or study day 16 and continuing through study day 21 or 23, respectively. The control article gabapentin (in 0.9% saline, 150 mg/kg i.p.) was only administered on allodynia test days. Test item, vehicle or control article administration was based on evaluation of allodynia on study day 14. If allodynia was not present on study day 14, the animal was evaluated again at study day 16. Pain response was measured either on study days 14 and 21 or 16 and 23, 30 minutes after Test Item administration.
For the allodynia assessments, Von Frey filaments were used according to the methods of Chaplan and colleagues (1994). Briefly, the rats were placed in an enclosure and positioned on a metal mesh surface, but allowed to move freely. The rats' cabins were covered with red cellophane to diminish environmental distributions. The test began after cessation of exploratory behavior.
When the tip of a Von Frey fiber of given length and diameter was pressed against the skin at right angles, the force of application increases as long as the researcher continued to advance the probe until the fiber bent. After the fiber bent, the probe was advanced, causing the fiber to bend more, but without additional force being applied. The animal would indicate sensation by pulling back its paw. In the absence of a paw withdrawal response to the initially selected filament, a stronger stimulus was presented; in the event of paw withdrawal, the next weaker stimulus was chosen. In this fashion, the resulting pattern of positive and negative responses was used to determine the paw withdrawal threshold.
The set of Von Frey monofilaments provide an approximate logarithmic scale of actual force and a linear scale of perceived intensity. Below is a table showing the force (g) and its corresponding size of monofilaments.
All normally distributed data are presented as means±SEM, as well as the animals' individual values followed by a student T-test (Software: Microsoft® Excel). A p value <0.05 is considered to represent a significant difference. Due to the non-normal distribution of the allodynia data, descriptions of those data are provided as both mean (±SEM) and median values in order to represent their imprecise nature and skewed distribution.

normal rats = experiment: Novel object recognition (NOR) task; type: in vivo, rat; details: for Minimum Effective Dose (MED): oral, rats (FIG. 2)
Description: Memory was assessed by using the three-trial novel object recognition test. On the first day (exploratory trial), rats were allowed to explore an open arena (44.5×44.5×30.5 cm) for 6 min. On the second day (acquisition trial), rats were allowed to explore the same arena in the presence of two identical objects (both object A) for 3 minutes. On the third day (retention or recall trial), performance was evaluated by allowing the same animal to re-explore the arena for 3 minutes in the presence of two different objects: the familiar object A and a novel object B. An inter-trial interval of 24 hours was imposed between the three NOR trials. Recognition memory was assessed by comparing the time spent exploring a novel (object B) versus a familiar (object A) object during the recall trial. Recognition index was assessed for each animal and expressed as a ratio ((time B/time A+time B)×100).

[4] = target: T1, human native muscle-type nicotinic receptors (likely α1β1γδ) (Homo sapiens, UniProt P02708+P07510+Q07001); experiment: [3H]epibatidine binding, TE-671 membranes
T1 construct: human native muscle-type nicotinic receptors (likely α1β1γδ); endogenous in cells; host or cells: TE-671
T1 sequence (P07510 23-517): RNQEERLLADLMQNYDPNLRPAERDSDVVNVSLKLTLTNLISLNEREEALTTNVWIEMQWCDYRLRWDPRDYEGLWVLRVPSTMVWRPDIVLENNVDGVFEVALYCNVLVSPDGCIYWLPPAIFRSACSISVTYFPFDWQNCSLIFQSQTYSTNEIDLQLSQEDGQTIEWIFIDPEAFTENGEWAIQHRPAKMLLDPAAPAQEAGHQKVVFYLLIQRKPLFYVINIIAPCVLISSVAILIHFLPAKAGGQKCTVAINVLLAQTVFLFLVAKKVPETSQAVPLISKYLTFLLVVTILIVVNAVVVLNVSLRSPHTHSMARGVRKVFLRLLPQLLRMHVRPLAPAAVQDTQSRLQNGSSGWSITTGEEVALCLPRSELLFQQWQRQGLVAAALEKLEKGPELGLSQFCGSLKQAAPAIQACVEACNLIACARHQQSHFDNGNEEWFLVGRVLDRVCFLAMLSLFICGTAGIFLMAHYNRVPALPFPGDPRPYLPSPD
T1 sequence (P11230 24-501, further chain): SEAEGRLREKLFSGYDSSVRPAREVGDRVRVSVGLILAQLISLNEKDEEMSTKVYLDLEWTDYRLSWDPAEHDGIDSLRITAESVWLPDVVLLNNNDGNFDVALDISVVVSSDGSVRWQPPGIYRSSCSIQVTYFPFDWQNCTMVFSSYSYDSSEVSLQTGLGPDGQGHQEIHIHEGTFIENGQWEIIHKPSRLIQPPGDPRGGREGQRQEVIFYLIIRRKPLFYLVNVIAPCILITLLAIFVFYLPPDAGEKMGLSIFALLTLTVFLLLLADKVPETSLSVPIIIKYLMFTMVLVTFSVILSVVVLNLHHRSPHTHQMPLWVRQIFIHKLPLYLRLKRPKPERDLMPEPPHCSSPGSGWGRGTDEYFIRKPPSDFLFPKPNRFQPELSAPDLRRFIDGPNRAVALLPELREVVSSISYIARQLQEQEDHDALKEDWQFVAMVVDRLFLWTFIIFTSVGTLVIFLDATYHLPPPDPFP
T1 sequence (P02708 21-457): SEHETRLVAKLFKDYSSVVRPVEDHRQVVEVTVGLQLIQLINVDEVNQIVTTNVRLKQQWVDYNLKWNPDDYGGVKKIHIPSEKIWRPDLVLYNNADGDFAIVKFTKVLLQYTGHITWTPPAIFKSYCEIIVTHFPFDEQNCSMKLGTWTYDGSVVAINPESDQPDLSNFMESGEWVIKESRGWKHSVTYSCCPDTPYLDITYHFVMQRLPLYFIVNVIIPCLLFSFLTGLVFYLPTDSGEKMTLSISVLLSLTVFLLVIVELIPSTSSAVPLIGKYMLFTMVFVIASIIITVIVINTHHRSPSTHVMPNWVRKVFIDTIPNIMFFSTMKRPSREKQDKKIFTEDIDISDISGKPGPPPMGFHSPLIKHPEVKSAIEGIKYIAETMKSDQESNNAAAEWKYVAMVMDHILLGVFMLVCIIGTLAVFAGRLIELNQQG
T1 sequence (Q07001 22-517): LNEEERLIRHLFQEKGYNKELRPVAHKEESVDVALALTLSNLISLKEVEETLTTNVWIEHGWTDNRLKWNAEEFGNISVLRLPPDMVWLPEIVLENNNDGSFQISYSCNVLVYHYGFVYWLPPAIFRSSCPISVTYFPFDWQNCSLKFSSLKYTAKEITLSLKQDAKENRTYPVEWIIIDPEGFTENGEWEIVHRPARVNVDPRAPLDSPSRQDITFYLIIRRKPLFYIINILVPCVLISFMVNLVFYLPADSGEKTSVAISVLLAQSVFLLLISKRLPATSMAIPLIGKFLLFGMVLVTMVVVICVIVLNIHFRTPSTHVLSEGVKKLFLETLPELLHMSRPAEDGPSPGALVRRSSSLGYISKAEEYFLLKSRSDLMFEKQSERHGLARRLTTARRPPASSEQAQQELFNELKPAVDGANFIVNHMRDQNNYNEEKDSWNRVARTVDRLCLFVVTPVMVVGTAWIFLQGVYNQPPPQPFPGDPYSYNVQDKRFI

O=C(N[C@@H]1C2CCN(CC2)[C@H]1Cc1cccnc1)c1cc(F)cc(F)c1 [Compound A]
methacholine-induced increase in Penh values ([1]; 10 mg/kg IT qd): significant inhibition
monocytes in BALF ([1]; 10 mg/kg SC): reduced
methacholine-induced increase in Penh values ([1]; 0.1, 1, and 10 mg/kg bid s.c.): significant inhibition
airway hyper-responsiveness ([1]; 0.1, 1 and 10 mg/kg bid s.c. and 10 mg/kg i.t., multiple administrations): significant protection against airway hyper-responsiveness
total WBC and eosinophils in BALF ([1]; 0.1 and 1 mg/kg SC): significantly reduced
lymphocytes in BALF ([1]; 0.1 and 1 mg/kg SC as well as 10 mg/kg IT): reduced
eosinophils and white blood cells in BALF ([1]; multiple administrations, lacks a consistent dose-response relationship): significant reduction
water solubility [2]: limited water solubility
allodynia (Von Frey) ([3]; 1 mg/kg p.o., study days 14/16, p<0.01 vs pretreatment, p<0.05 vs Vehicle): inhibited allodynia
allodynia (Von Frey) ([3]; 1 mg/kg p.o., study days 21/23, p=0.012 vs pretreatment): inhibited allodynia
allodynia (Von Frey) ([3]; 10 mg/kg p.o., study days 14/16, p=0.012 vs pretreatment): inhibited allodynia
allodynia (Von Frey) ([3]; 10 mg/kg p.o., study days 21/23, p<0.05 vs Vehicle): inhibited allodynia
diabetic neuropathy pain, Von Frey assessment ([3]; doses of 1 mg/kg and 10 mg/kg compared to Vehicle, FIG. 14): effective in reducing diabetic neuropathy pain
lowest dose with statistically significant effect (normal rats; NOR vs. dose, FIG. 1): 0.1 mg/kg
lowest dose with statistically significant effect (normal rats; NOR, FIGS. 1-4): 0.03 µM/kg
effects observed out to, after dosing (normal rats; NOR, FIGS. 1-4, dose not given in the sentence): ≤ 18 h
lowest dose with statistically significant effect (normal rats; NOR, determination of minimum effective dose, FIG. 2): 0.03 mg/kg
Minimum Effective Dose (MED) (normal rats; NOR, listed as (2S,3R)-N-2-((3-pyridinyl)methyl)-1-azabicyclo[2.2.2]oct-3-yl)-3,5-difluorobenza): MED = 0.084 μmol/kg
Minimum Effective Dose (MED) (normal rats; NOR, listed as (2S,3R)—N-2-((3-pyridinyl)methyl)-1-azabicyclo[2.2.2]oct-3-yl)-3,5-difluorobenza): 0.084 µmol/kg
effect in "recall only" session (normal rats; single oral administration of 0.28 μmol/kg on day 3): demonstrated pro-cognitive effects
Ki [4]: 136 µM

Reference: patent US20110312961A1, “2,5-Disubstituted Morpholine Orexin REceptor Antagonists” (priority 2008, published 2011)
